Measured values as given in publication PMC3509171 (Nature chemical biology, 2012).
Substitutions are numbered along the chain they refer to.

Legend:
[1] = target: T1, hOGT (312-1031) (Homo sapiens, UniProt O15294); assay: surface plasmon resonance, […] equilibrium fit; type: binding
T1 sequence (O15294 322-1041): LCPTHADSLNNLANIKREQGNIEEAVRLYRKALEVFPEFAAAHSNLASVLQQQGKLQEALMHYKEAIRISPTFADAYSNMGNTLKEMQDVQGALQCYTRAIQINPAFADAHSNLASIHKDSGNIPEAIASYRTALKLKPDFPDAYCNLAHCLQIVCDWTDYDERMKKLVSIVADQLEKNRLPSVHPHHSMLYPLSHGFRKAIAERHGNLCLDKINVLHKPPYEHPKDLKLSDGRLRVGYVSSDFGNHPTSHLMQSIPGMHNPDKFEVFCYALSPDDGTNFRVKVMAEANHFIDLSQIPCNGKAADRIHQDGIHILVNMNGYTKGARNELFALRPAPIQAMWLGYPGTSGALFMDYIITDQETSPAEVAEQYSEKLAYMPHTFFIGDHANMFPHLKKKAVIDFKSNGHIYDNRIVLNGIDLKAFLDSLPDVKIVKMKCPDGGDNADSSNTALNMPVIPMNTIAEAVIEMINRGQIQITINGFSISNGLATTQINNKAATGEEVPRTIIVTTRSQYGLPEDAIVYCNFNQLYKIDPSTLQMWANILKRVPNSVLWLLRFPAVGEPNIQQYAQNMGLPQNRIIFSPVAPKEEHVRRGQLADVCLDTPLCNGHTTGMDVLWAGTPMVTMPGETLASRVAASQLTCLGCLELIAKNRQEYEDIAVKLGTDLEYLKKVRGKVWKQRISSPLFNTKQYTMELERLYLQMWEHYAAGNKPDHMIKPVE

[2] = target: T2, hOGT (312-1031) (Homo sapiens, UniProt O15294, H568F); assay: surface plasmon resonance, […] equilibrium fit; type: binding
T2 sequence (O15294 322-1041 H568F): T1 sequence (O15294 322-1041) with H247F

[3] = target: T3, hOGT (312-1031) (Homo sapiens, UniProt O15294, D564N); assay: surface plasmon resonance, […] equilibrium fit; type: binding
T3 sequence (O15294 322-1041 D564N): T1 sequence (O15294 322-1041) with D243N

[4] = target: T4, hOGT (312-1031) (Homo sapiens, UniProt O15294, K852M); assay: surface plasmon resonance, […] equilibrium fit; type: binding
T4 sequence (O15294 322-1041 K852M): T1 sequence (O15294 322-1041) with K531M

[5] = target: T1, hOGT (312-1031); assay: in vitro O-GlcNAc transfer inhibition; type: biochemical

| SMILES | Kd [1] | Kd [2] | Kd [3] | Kd [4] | IC50 [5] |
| --- | --- | --- | --- | --- | --- |
| CC(=O)N[C@H]1[C@@H](OP(=O)(O)OP(=O)(O)OC[C@H]2O[C@@H](n3ccc(=O)[nH]c3=O)[C@H](O)[C@@H]2O)O[C@H](CO)[C@@H](O)[C@@H]1O [UDP-GlcNAc] | 16.1 ± 0.1 µM | 42.3 ± 0.4 µM | 32.1 ± 0.3 µM | 4.7 ± 0.1 µM | – |
| O=c1ccn([C@@H]2O[C@H](COP(=O)(O)OP(=O)(O)O)[C@@H](O)[C@H]2O)c(=O)[nH]1 [UDP] | – | 0.7 ± 0.1 µM | 0.6 ± 0.03 µM | – | – |
| CC(=O)N[C@@H]1[C@@H](O)[C@H](O)[C@@H](CO)S[C@@H]1OP(=O)(O)OP(=O)(O)OC[C@H]1O[C@@H](n2ccc(=O)[nH]c2=O)[C@H](O)[C@@H]1O [compound 1, UDP-5S-GlcNAc] | – | – | – | 5.7 ± 0.1 µM | – |

Continued, values first:

| Kd [1] | Kd [2] | Kd [3] | Kd [4] | IC50 [5] | SMILES |
| --- | --- | --- | --- | --- | --- |
| 12.1 ± 0.1 µM | – | – | 29.3 ± 0.1 µM | – | O=C(N[C@H]1[C@@H](OP(=O)(O)OP(=O)(O)OC[C@H]2O[C@@H](n3ccc(=O)[nH]c3=O)[C@H](O)[C@@H]2O)O[C@H](CO)[C@@H](O)[C@@H]1O)C(F)(F)F [compound 2, UDP-GlcNAcF3] |
| 11.3 ± 0.1 µM | – | – | 2.8 ± 0.1 µM | 25 µM | CC(=O)N[C@H]1[C@@H](OP(=O)(O)O[P@](O)(=S)OC[C@H]2O[C@@H](n3ccc(=O)[nH]c3=O)[C@H](O)[C@@H]2O)O[C@H](CO)[C@@H](O)[C@@H]1O [compound 4, RP-αS-UDP-GlcNAc] |
